Test results from patent publication US11040959B2, “Diprovocims: a new and potent class of TLR agonists” (The Scripps Research Institute, priority 2016, dated 2021).
Where two headings read alike, the source gives them in different places.

Key:
[1] = system: differentiated human THP-1 cells; assay: stimulated release of TNF-α from differentiated human THP-1 cells (ELISA, dose-response); type: cell-based; conditions: for EC50: Homo sapiens, read-out: EC50 (nM) (THP-1)
Description: A screening campaign was conducted with nearly 100,000 compounds [(a) Whitby et al., Acc. Chem. Res. 2012, 45:1698-1709; and (b) Boger et al., Angew. Chem. Int. Ed. 2003, 42:4138-4176], using a newly developed functional assay that measured the stimulated release of TNF-α from treated human THP-1 cells partially differentiated along the macrophage line [unpublished results of the inventors and co-workers]. […] The libraries screened in the efforts represent a unique compound collection populated by nontraditional compounds [(a) Whitby et al., Acc. Chem. Res. 2012, 45:1698-1709; and (b) Boger et al., Angew. Chem. Int. Ed. 2003, 42:4138-4176] designed to target protein-protein [(a) Shaginian et al., J. Am. Chem. Soc. 2009, 131:5564-5572; and (b) Whitby et al., J. Am. Chem. Soc. 2011, 133:10184-10194] or protein-DNA interactions [Stover et al., J. Am. Chem. Soc. 2009, 131:3342-3348] as well as the major enzyme classes [Otrubova et al., Bioorg. Med. Chem. Lett. 2014, 24:3807-3813].
Hits were confirmed in an ELISA assay for stimulated TNF-α release from human PMA differentiated THP-1 cells and this assay was used for establishing dose-response curves and measured EC50 values.

[2] = system: mouse macrophages; assay: stimulated release of TNF-α from mouse macrophages; type: cell-based; conditions: Macrophage, read-out: EC50 (nM) (mouse)
Source text: EC50 values are derived from dose-response curves for the stimulated release of TNF-α from differentiated THP-1 cells or mouse macrophages are shown beneath each appropriate structural formula of Compounds 8-12. Half maximal effective concentration (EC50) refers to the concentration of a drug, antibody or toxicant that induces a response halfway between the baseline and maximum after a specified exposure time. It is commonly used as a measure of a drug's potency.

[3] = THP-1, Table 1, TNF-α release from human THP-1 cells
[4] = Table 1, TNF-α release from mouse macrophages
[5] = THP-1, Table 2, TNF-α release from human THP-1 cells
[6] = Table 2, TNF-α release from mouse macrophages

SMILES	EC50 [1, 3] [nM]	EC50 [2, 4] [nM]	EC50 [1, 5] [nM]	EC50 [2, 6] [nM]	fold less active/potent than diprovocim-1 (3) ([1]; human THP-1 cells) [fold]
O=C(N[C@H]1C[C@@H]1c1ccccc1)C1CN(C(=O)C#CC(=O)N2C[C@@H](C(=O)N[C@H]3C[C@@H]3c3ccccc3)[C@H](C(=O)N[C@H]3C[C@@H]3c3ccccc3)C2)C[C@H]1C(=O)N[C@H]1C[C@@H]1c1ccccc1 (stereo partly drawn) [Compound 35, (3S,3′S,4S,4′S)-1,1′-(But-2-ynedioyl)-bis(N^3,N^4-bis((1S,2R)-2-phenylcyclopropyl)-pyrrolidine-3,4-dicarboxamide)]	> 5000	> 5000	–	–	–
O=C(N[C@H]1C[C@@H]1c1ccccc1)[C@@H]1CN(C(=O)/C=C/C(=O)N2C[C@@H](C(=O)N[C@H]3C[C@@H]3c3ccccc3)[C@H](C(=O)N[C@H]3C[C@@H]3c3ccccc3)C2)C[C@H]1C(=O)N[C@H]1C[C@@H]1c1ccccc1 [Compound 36, (3S,3′S,4S,4′S)-1,1′-Fumaroyl-bis(N^3,N^4-bis((1S,2R)-2-phenylcyclopropyl)pyrrolidine-3,4-dicarboxamide)]	> 5000	> 5000	–	–	–
O=C(N[C@H]1C[C@@H]1c1ccccc1)[C@@H]1CN(C(=O)C/C=C/CC(=O)N2C[C@@H](C(=O)N[C@H]3C[C@@H]3c3ccccc3)[C@H](C(=O)N[C@H]3C[C@@H]3c3ccccc3)C2)C[C@H]1C(=O)N[C@H]1C[C@@H]1c1ccccc1 [Compound 37, (3S,3′S,4S,4′S)-1,1′-((E)-Hex-3-enedoyl)bis-(N^3,N^4-bis((1S,2R)-2-phenylcyclopropyl)pyrrolidine-3,4-dicarboxamide)]	> 5000	> 5000	–	–	–
O=C(N[C@H]1C[C@@H]1c1ccccc1)[C@@H]1CN(C(=O)c2cccc(C(=O)N3C[C@@H](C(=O)N[C@H]4C[C@@H]4c4ccccc4)[C@H](C(=O)N[C@H]4C[C@@H]4c4ccccc4)C3)c2)C[C@H]1C(=O)N[C@H]1C[C@@H]1c1ccccc1 [Compound 38, (3S,3′S,4S,4′S)-1,1′-Isophthaloyl-bis-(N^3,N^4-bis((1S,2R)-2-phenylcyclopropyl)-pyrrolidine-3,4-dicarboxamide)]	> 5000	> 5000	–	–	–
O=C(N[C@H]1C[C@@H]1c1ccccc1)[C@@H]1CN(C(=O)[C@@H]2CCC[C@H](C(=O)N3C[C@@H](C(=O)N[C@H]4C[C@@H]4c4ccccc4)[C@H](C(=O)N[C@H]4C[C@@H]4c4ccccc4)C3)C2)C[C@H]1C(=O)N[C@H]1C[C@@H]1c1ccccc1 [Compound 41, (3S,3′S,4S,4′S)-1,1′-(cis-1,3-Cyclohexane-dicarbonyl)bis(N^3,N^4-bis((1S,2R)-2-phenyl-cyclopropyl)pyrrolidine-3,4-dicarboxamide)]	> 5000	> 5000	–	–	–
O=C(N[C@H]1C[C@@H]1c1ccccc1)[C@@H]1CN(C(=O)c2ccc3cc(C(=O)N4C[C@@H](C(=O)N[C@H]5C[C@@H]5c5ccccc5)[C@H](C(=O)N[C@H]5C[C@@H]5c5ccccc5)C4)ccc3c2)C[C@H]1C(=O)N[C@H]1C[C@@H]1c1ccccc1 [Compound 44, (3S,3′S,4S,4′S)-1,1′-(Naphthalene-2,6-dicarbonyl)bis(N^3,N^4-bis((1S,2R)-2-phenylcyclopropyl)-pyrrolidine-3,4-dicarboxamide)]	–	–	2	380	> 10
O=C(N[C@H]1C[C@@H]1c1ccccc1)[C@@H]1CN(C(=O)Cc2cccc(CC(=O)N3C[C@@H](C(=O)N[C@H]4C[C@@H]4c4ccccc4)[C@H](C(=O)N[C@H]4C[C@@H]4c4ccccc4)C3)c2)C[C@H]1C(=O)N[C@H]1C[C@@H]1c1ccccc1 [Compound 46, (3S,3′S,4S,4′S)-1,1′-((1,3-Phenylene)diacetyl)-bis(N^3,N^4-bis((1S,2R)-2-phenylcyclopropyl)-pyrrolidine-3,4-dicarboxamide)]	–	–	> 5000	> 5000	–

Further lines, with some results ahead:

EC50 [1, 3] [nM]	EC50 [2, 4] [nM]	EC50 [1, 5] [nM]	EC50 [2, 6] [nM]	SMILES	fold less active/potent than diprovocim-1 (3) ([1]; human THP-1 cells) [fold]
90	2300	–	–	O=C(N[C@H]1C[C@@H]1c1ccccc1)[C@@H]1CN(C(=O)c2ccc(-c3ccc(C(=O)N4C[C@@H](C(=O)N[C@H]5C[C@@H]5c5ccccc5)[C@H](C(=O)N[C@H]5C[C@@H]5c5ccccc5)C4)cc3)cc2)C[C@H]1C(=O)N[C@H]1C[C@@H]1c1ccccc1 [Compound 39, (3S,3′S,4S,4′S)-1,1′-(4,4′-Biphenyldicarboxoyl)-bis(N^3,N^4-bis((1S,2R)-2-phenylcyclopropyl)-pyrrolidine-3,4-dicarboxamide)]	–
> 5000	> 5000	–	–	O=C(N[C@H]1C[C@@H]1c1ccccc1)[C@@H]1CN(C(=O)COCC(=O)N2C[C@@H](C(=O)N[C@H]3C[C@@H]3c3ccccc3)[C@H](C(=O)N[C@H]3C[C@@H]3c3ccccc3)C2)C[C@H]1C(=O)N[C@H]1C[C@@H]1c1ccccc1 [Compound 40, (3S,3′S,4S,4′S)-1,1′-(2,2′-Oxybis-(acetyl))bis-(N^3,N^4-bis((1S,2R)-2-phenylcyclopropyl)pyrrolidine-3,4-dicarboxamide)]	–
> 5000	> 5000	–	–	O=C(N[C@H]1C[C@@H]1c1ccccc1)[C@@H]1CN(C(=O)[C@H]2CC[C@H](C(=O)N3C[C@@H](C(=O)N[C@H]4C[C@@H]4c4ccccc4)[C@H](C(=O)N[C@H]4C[C@@H]4c4ccccc4)C3)CC2)C[C@H]1C(=O)N[C@H]1C[C@@H]1c1ccccc1 [Compound 42, (3S,3′S,4S,4′S)-1,1′-(trans-1,4-Cyclohexane-dicarbonyl)bis(N^3,N^4-bis((1S,2R)-2-phenyl-cyclopropyl)pyrrolidine-3,4-dicarboxamide)]	–
> 5000	> 5000	–	–	O=C(N[C@H]1C[C@@H]1c1ccccc1)[C@@H]1CN(C(=O)[C@H]2CC[C@@H](C(=O)N3C[C@@H](C(=O)N[C@H]4C[C@@H]4c4ccccc4)[C@H](C(=O)N[C@H]4C[C@@H]4c4ccccc4)C3)CC2)C[C@H]1C(=O)N[C@H]1C[C@@H]1c1ccccc1 [Compound 43, (3S,3′S,4S,4′S)-1,1′-(cis-1,4-Cyclohexane-dicarbonyl)bis(N^3,N^4-bis((1S,2R)-2-phenylcyclopropyl)-pyrrolidine-3,4-dicarboxamide)]	–
–	–	> 5000	> 5000	O=C(N[C@H]1C[C@@H]1c1ccccc1)[C@@H]1CN(C(=O)c2ccc(C(=O)N3C[C@@H](C(=O)N[C@H]4C[C@@H]4c4ccccc4)[C@H](C(=O)N[C@H]4C[C@@H]4c4ccccc4)C3)c3ccccc23)C[C@H]1C(=O)N[C@H]1C[C@@H]1c1ccccc1 [Compound 45, (3S,3′S,4S,4′S)-1,1′-(Naphthalene-1,4-dicarbonyl)bis(N^3,N^4-bis((1S,2R)-2-phenylcyclopropyl)-pyrrolidine-3,4-dicarboxamide)]	–
–	–	> 5000	> 5000	O=C(N[C@H]1C[C@@H]1c1ccccc1)[C@@H]1CN(C(=O)c2cccc3c(C(=O)N4C[C@@H](C(=O)N[C@H]5C[C@@H]5c5ccccc5)[C@H](C(=O)N[C@H]5C[C@@H]5c5ccccc5)C4)cccc23)C[C@H]1C(=O)N[C@H]1C[C@@H]1c1ccccc1 [Compound 47, (3S,3′S,4S,4′S)-1,1′-(Naphthalene-1,5-dicarbonyl)bis(N^3,N^4-bis((1S,2R)-2-phenylcyclopropyl)-pyrrolidine-3,4-dicarboxamide)]	–
–	–	> 5000	> 5000	O=C(N[C@H]1C[C@@H]1c1ccccc1)[C@@H]1CN(C(=O)Cc2ccc(CC(=O)N3C[C@@H](C(=O)N[C@H]4C[C@@H]4c4ccccc4)[C@H](C(=O)N[C@H]4C[C@@H]4c4ccccc4)C3)cc2)C[C@H]1C(=O)N[C@H]1C[C@@H]1c1ccccc1 [Compound 48, (3S,3′S,4S,4′S)-1,1′-((1,4-Phenylene)diacetyl)-bis(N^3,N^4-bis((1S,2R)-2-phenylcyclopropyl)-pyrrolidine-3,4-dicarboxamide)]	–
